The target in this assay is T1, 5-LOX enzyme (human recombinant) (Homo sapiens, UniProt P09917).
T1 construct: purchased Sigma-Aldrich 437996
T1 sequence (P09917 1-674): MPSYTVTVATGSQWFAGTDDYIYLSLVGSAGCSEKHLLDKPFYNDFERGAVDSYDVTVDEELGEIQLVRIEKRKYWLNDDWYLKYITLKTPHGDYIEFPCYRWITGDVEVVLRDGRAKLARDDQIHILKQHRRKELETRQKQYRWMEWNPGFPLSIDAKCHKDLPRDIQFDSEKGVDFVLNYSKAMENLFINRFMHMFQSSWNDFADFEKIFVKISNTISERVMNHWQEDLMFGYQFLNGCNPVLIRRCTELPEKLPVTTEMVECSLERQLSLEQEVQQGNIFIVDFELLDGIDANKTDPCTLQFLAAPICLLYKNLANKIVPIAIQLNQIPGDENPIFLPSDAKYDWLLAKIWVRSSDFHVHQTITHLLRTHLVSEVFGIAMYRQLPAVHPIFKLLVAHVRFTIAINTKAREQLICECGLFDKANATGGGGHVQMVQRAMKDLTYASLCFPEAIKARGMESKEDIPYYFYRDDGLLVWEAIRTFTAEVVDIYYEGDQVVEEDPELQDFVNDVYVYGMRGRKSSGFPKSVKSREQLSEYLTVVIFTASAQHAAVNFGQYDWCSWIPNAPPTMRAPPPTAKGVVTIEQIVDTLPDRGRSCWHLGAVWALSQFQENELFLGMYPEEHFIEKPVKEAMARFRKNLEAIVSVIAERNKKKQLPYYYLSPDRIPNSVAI
The experiment in a line: 5-lipoxygenase inhibition assay (5-LOX kit). It is filed as biochemical. To be noted: mean ± SE, n = 3. The text has this:
The requirements for High-Performance Liquid Chromatography (HPLC) and all compounds tested were of the utmost analytical purity. […] COX-1 and COX-2 (ovine/human), as well as the 5-LOX enzyme (human recombinant) were obtained from Sigma-Aldrich. Dulbecco’s Modified Eagle’s Medium (DMEM), along with penicillin/streptomycin and L-glutamine, were acquired from Gibco BRL, California, USA. Fetal bovine serum (FBS) and 3-(4, 5-dimethylthiazol-2-yl)-2, 5-[…] (MTT) were supplied by Sigma-Aldrich, St. Louis, Missouri, USA.
The methanolic extract of V. odorata flowers and isolated flavonoids were subjected to an in vitro anti-inflammatory assessment by inhibiting two isoenzymes, cyclooxygenase COX-1 and COX-2 (ovine/human), as well as the 5-LOX enzyme (human recombinant).

For orientation: IC50 means the concentration that inhibits the measured activity by half. On to `COc1c(O)cc2oc(-c3ccccc3)c(OC)c(=O)c2c1O` [5,7-Dihydroxy-3,6-dimethoxyflavone], for which the half-inhibitory concentration (IC50) was 3.14 µM.

For the origin of these results see publication PMC12446468, “Anti-inflammatory and cytotoxic assessment of flavonoids isolated from Viola odorata flowers with computer-guided docking study” (Scientific Reports, 2025).
